Assay results reported in BindingDB's records for doi:10.7270/Q2Q52N1X (Vanderbilt Screening Center for GPCRs, Ion Channels and …, 2009).
pEC50: −log10 of the molar value.

What follows are compounds tested against T1, Solute carrier family 12 member 5 (Homo sapiens, UniProt Q9H2X9) (assay: KCC2 modulator potency by thallium flux, dose response, cell-based, HEK293 KCC2, FluoZin-2 fluorescence (AID 1736)). Conditions: not given.
T1 sequence (Q9H2X9 whole entry): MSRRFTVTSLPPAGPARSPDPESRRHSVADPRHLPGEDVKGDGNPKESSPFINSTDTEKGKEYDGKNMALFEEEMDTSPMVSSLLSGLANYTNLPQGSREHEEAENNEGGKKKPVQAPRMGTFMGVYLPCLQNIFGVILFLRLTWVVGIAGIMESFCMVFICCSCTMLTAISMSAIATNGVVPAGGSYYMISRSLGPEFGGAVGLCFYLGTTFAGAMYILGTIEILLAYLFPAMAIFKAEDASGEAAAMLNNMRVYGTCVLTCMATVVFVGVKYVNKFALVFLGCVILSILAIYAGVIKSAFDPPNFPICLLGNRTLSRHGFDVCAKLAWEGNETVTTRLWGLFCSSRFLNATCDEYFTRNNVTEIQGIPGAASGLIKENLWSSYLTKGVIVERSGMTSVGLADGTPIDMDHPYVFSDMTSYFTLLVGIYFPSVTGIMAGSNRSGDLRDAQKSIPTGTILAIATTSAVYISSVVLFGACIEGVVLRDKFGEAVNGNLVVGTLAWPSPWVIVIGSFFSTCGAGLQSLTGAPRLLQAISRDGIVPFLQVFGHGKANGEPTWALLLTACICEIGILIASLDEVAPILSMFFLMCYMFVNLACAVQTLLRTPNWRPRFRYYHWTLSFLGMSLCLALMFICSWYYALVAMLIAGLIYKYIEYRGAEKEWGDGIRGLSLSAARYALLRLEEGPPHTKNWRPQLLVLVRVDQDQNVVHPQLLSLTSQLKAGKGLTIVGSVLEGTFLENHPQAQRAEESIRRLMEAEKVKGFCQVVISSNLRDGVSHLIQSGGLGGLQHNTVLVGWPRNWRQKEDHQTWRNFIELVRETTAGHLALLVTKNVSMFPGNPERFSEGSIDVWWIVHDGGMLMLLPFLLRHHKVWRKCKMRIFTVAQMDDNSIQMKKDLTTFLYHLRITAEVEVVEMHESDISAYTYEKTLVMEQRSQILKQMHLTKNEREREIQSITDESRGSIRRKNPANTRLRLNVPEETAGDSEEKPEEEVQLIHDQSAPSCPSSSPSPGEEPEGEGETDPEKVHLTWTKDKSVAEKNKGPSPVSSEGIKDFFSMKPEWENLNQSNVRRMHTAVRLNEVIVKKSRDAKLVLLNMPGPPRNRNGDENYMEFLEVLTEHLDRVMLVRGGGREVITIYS

**Q.** How did the pEC50 turn out when `COCCNS(=O)(=O)c1ccc(-c2ccc(Cl)cc2)cc1` [4'-chloro-N-(2-methoxyethyl)-4-biphenylsulfonamide] was run?
**A.** The pEC50 was 5.11.

**Q.** How did the pEC50 turn out when `O=C(CSc1nnc(-c2ccc(F)cc2)o1)N1CCN(C(=O)c2ccco2)CC1` [2-[5-(4-Fluoro-phenyl)-[1,3,4]oxadiazol-2-ylsulfanyl]-1-[4-(furan-2-carbonyl)-piperazin-1-yl]-ethanone] was run?
**A.** The pEC50 was 4.75.

**Q.** `Cc1c(N=C2Nc3cccc4cccc2c34)c(=O)n(-c2ccccc2)n1C` [4-(2-benzo[cd]indolylamino)-1,5-dimethyl-2-phenyl-3-pyrazolone] was tested. Which pEC50 did it give?
**A.** The pEC50 was 5.72.

**Q.** `O=C(CSc1nnc(-c2ccc(O)cc2)n1Cc1ccco1)N1CCc2ccccc2C1` [1-(3,4-Dihydro-1H-isoquinolin-2-yl)-2-[4-furan-2-ylmethyl-5-(4-hydroxy-phenyl)-4H-[1,2,4]triazol-3-ylsulfanyl]-ethanone] was tested. Which pEC50 did it give?
**A.** Its pEC50 is 4.82.

**Q.** How did the pEC50 turn out when `Cc1n[nH]c(O)c1C(c1ccc(-c2ccc(F)cc2)o1)c1c(C)n[nH]c1O` [4-[[5-(4-fluorophenyl)furan-2-yl]-(3-methyl-5-oxo-1,2-dihydropyrazol-4-yl)methyl]-5-methyl-1,2-dihydropyrazol-3-one] was run?
**A.** The pEC50 was 4.84.

**Q.** How did the pEC50 turn out when `CCn1nnnc1SCC(=O)Nc1nc(-c2cccs2)cs1` [2-(1-Ethyl-1H-tetrazol-5-ylsulfanyl)-N-(4-thiophen-2-yl-thiazol-2-yl)-acetamide] was run?
**A.** Its pEC50 is 5.71.

**Q.** How did the pEC50 turn out when `O=C(COC(=O)c1cc([N+](=O)[O-])ccc1NCc1ccccc1)NC1CCCCC1` [2-(benzylamino)-5-nitro-benzoic acid [2-(cyclohexylamino)-2-keto-ethyl] ester] was run?
**A.** Its pEC50 is 5.34.

**Q.** With `Cc1[nH]c2ccccc2c1Cc1nnc(S)o1` as the compound, how does the pEC50 read?
**A.** Its pEC50 is 5.80.

**Q.** `CS(=O)(=O)N(CC(=O)N1CCN(c2ccccc2)CC1)c1cccc(Br)c1` [MLS000110474] was tested. Which pEC50 did it give?
**A.** Its pEC50 is 5.61.

**Q.** How did the pEC50 turn out when `O=C(Cc1csc(-c2ccccc2)n1)NCc1ccc(F)cc1` [MLS000336311] was run?
**A.** Its pEC50 is 4.71.

**Q.** `COc1cc(C(=S)N2CCOCC2)cc(OC)c1OC(=O)Cc1ccc(F)cc1` [(2,6-dimethoxy-4-morpholin-4-ylcarbothioyl-phenyl) 2-(4-fluorophenyl)ethanoate] was tested. Which pEC50 did it give?
**A.** Its pEC50 is 5.40.

**Q.** How did the pEC50 turn out when `Cc1cc(C)c(C#N)c(N2CCN(Cc3ccccc3)CC2)n1` [2-(4-benzyl-1-piperazinyl)-4,6-dimethylnicotinonitrile] was run?
**A.** The pEC50 was 4.71.

**Q.** `CCOC(=O)c1c(C)[nH]c(N=Nc2ccccc2)c1C` [(5Z)-2,4-dimethyl-5-(phenylhydrazinylidene)-3-pyrrolecarboxylic acid ethyl ester] was tested. Which pEC50 did it give?
**A.** The pEC50 was 5.18.

**Q.** With `O=[N+]([O-])c1ccc(CSc2nnc(SCc3ccccc3)s2)cc1` [2-(benzylthio)-5-[(4-nitrobenzyl)thio]-1,3,4-thiadiazole] as the compound, how does the pEC50 read?
**A.** The pEC50 was 4.95.

**Q.** With `NC(=O)COc1ccccc1/C=C1/SC(=O)N(CC(=O)N2CCc3ccccc3C2)C1=O` [2-[2-({3-[2-(3,4-dihydro-2(1H)-isoquinolinyl)-2-oxoethyl]-2,4-dioxo-1,3-thiazolidin-5-ylidene}methyl)phenoxy]acetamide] as the compound, how does the pEC50 read?
**A.** Its pEC50 is 4.78.

**Q.** How did the pEC50 turn out when `O=C(NNc1nc(-c2ccccc2)cs1)c1ccccc1` [MLS000547345] was run?
**A.** The pEC50 was 7.53.

**Q.** With `Cc1ccc(OCCC(=O)OCC(=O)N2c3ccccc3CC2C)cc1` (configuration not stated) [3-(4-methylphenoxy)propanoic acid [2-(2-methyl-2,3-dihydroindol-1-yl)-2-oxoethyl] ester] as the compound, how does the pEC50 read?
**A.** The pEC50 was 5.36.

**Q.** `O=C(NC1CCCC1)C(c1ccncc1)N(Cc1ccco1)C(=O)c1ccc(-c2ccccc2)[nH]1` (configuration not stated) [MLS000718066] was tested. Which pEC50 did it give?
**A.** The pEC50 was 5.20.

**Q.** With `O=C(Cn1nc2ccccc2n1)NN=Cc1cc(Cl)cc([N+](=O)[O-])c1O` [2-(2H-1,2,3-benzotriazol-2-yl)-N'-{5-chloro-2-hydroxy-3-nitrobenzylidene}acetohydrazide] as the compound, how does the pEC50 read?
**A.** The pEC50 was 4.55.

**Q.** `Cc1ccc2oc(-c3ccc(C)c(NC(=S)NC(=O)c4cccs4)c3)nc2c1` [1-[2-Methyl-5-(5-methyl-benzooxazol-2-yl)-phenyl]-3-(thiophene-2-carbonyl)-thiourea] was tested. Which pEC50 did it give?
**A.** The pEC50 was 6.70.

**Q.** `N#Cc1ccccc1NC(=O)CSc1nccn1CCc1ccccc1` [MLS000051858] was tested. Which pEC50 did it give?
**A.** The pEC50 was 4.90.

**Q.** `O=C(CNC(=O)/C(=C\c1ccc(Br)cc1)NC(=O)c1ccccc1)OCc1ccccc1` [(phenylmethyl) 2-[[(E)-2-benzamido-3-(4-bromophenyl)prop-2-enoyl]amino]ethanoate] was tested. Which pEC50 did it give?
**A.** The pEC50 was 5.92.

**Q.** `COc1ccc(-c2cc(CNC(=O)CN(C)Cc3ccccc3)on2)cc1` [2-[benzyl(methyl)amino]-N-[[3-(4-methoxyphenyl)-1,2-oxazol-5-yl]methyl]acetamide] was tested. Which pEC50 did it give?
**A.** Its pEC50 is 4.82.

**Q.** How did the pEC50 turn out when `O=C(Cn1cnc2c(nnn2Cc2ccc(F)cc2)c1=O)N1CCN(c2ccccc2)CC1` [3-(4-fluorobenzyl)-6-[2-keto-2-(4-phenylpiperazino)ethyl]triazolo[4,5-d]pyrimidin-7-one] was run?
**A.** Its pEC50 is 5.09.

**Q.** How did the pEC50 turn out when `Cc1ccccc1OCC(=O)NNC(=O)CCN1C(=O)c2ccccc2C1=O` [3-(1,3-dioxo-2-isoindolyl)-N'-[2-(2-methylphenoxy)-1-oxoethyl]propanehydrazide] was run?
**A.** The pEC50 was 4.83.

**Q.** With `N#Cc1nc(-c2cccs2)oc1N1CCN(Cc2ccccc2)CC1` [5-(4-benzyl-1-piperazinyl)-2-(2-thienyl)-1,3-oxazole-4-carbonitrile] as the compound, how does the pEC50 read?
**A.** The pEC50 was 4.93.

**Q.** How did the pEC50 turn out when `COc1ccc(-c2cc(CCCC(=O)NCCc3ccccc3)no2)cc1` [4-[5-(4-methoxyphenyl)-1,2-oxazol-3-yl]-N-(2-phenylethyl)butanamide] was run?
**A.** Its pEC50 is 5.74.

**Q.** `O=C(CSc1nnnn1-c1ccc(Cl)cc1)N1CCc2ccccc2C1` [2-[1-(4-chlorophenyl)tetrazol-5-yl]sulfanyl-1-(3,4-dihydro-1H-isoquinolin-2-yl)ethanone] was tested. Which pEC50 did it give?
**A.** The pEC50 was 5.49.

**Q.** With `Cc1ccc(NC(=O)c2ccccc2NS(=O)(=O)c2ccc(Cl)s2)cc1` [2-[(5-chloranylthiophen-2-yl)sulfonylamino]-N-(4-methylphenyl)benzamide] as the compound, how does the pEC50 read?
**A.** Its pEC50 is 5.79.

**Q.** `O=C(C1CCN(c2nc3ccc(Br)cc3s2)CC1)N1CCC2(CC1)OCCO2` [8-{[1-(6-bromo-1,3-benzothiazol-2-yl)piperidin-4-yl]carbonyl}-1,4-dioxa-8-azaspiro[4.5]decane] was tested. Which pEC50 did it give?
**A.** The pEC50 was 5.15.

**Q.** With `Sc1nnc(Nc2ccccc2)s1` [5-anilino-3H-1,3,4-thiadiazole-2-thione] as the compound, how does the pEC50 read?
**A.** The pEC50 was 5.60.

**Q.** How did the pEC50 turn out when `CC(=O)NCC1CCCN(c2nc3nonc3nc2N(C)Cc2ccccc2)C1` (configuration not stated) [MLS000731683] was run?
**A.** Its pEC50 is 5.77.

**Q.** `CC1Cc2ccccc2N1C(=O)CN(C)S(=O)(=O)c1cccc2cccnc12` (configuration not stated) [MLS000523063] was tested. Which pEC50 did it give?
**A.** The pEC50 was 4.71.

**Q.** `COc1cc(C=NN(C)c2ccccc2)ccc1O` was tested. Which pEC50 did it give?
**A.** Its pEC50 is 2.00.

**Q.** With `CCCC1=NN2C(=N)/C(=C\c3cc(C)n(-c4cc(C)cc(C)c4)c3C)C(=O)N=C2S1` [MLS000588586] as the compound, how does the pEC50 read?
**A.** Its pEC50 is 5.12.

**Q.** With `N#Cc1c(NC(=O)CSc2nc(N)cc(=O)[nH]2)sc2c1CCCCCC2` [2-[(6-amino-4-oxo-1H-pyrimidin-2-yl)sulfanyl]-N-(3-cyano-4,5,6,7,8,9-hexahydrocycloocta[b]thiophen-2-yl)acetamide] as the compound, how does the pEC50 read?
**A.** The pEC50 was 6.34.

**Q.** How did the pEC50 turn out when `CC(NNC(=O)c1ccc(Br)cc1)=C1C(=O)c2ccccc2C1=O` [SMR000116009] was run?
**A.** Its pEC50 is 5.81.

**Q.** `CCOc1ccc(C(CC(=O)O)NC(=O)C(Sc2ccccc2)c2ccccc2)cc1` (configuration not stated) [3-(4-ethoxyphenyl)-3-[(2-phenyl-2-phenylsulfanyl-ethanoyl)amino]propanoic acid] was tested. Which pEC50 did it give?
**A.** Its pEC50 is 4.87.

**Q.** How did the pEC50 turn out when `O=C(CSc1nnc(-c2c[nH]c3ccccc23)o1)N1CCCCC1` [SMR000003748] was run?
**A.** The pEC50 was 5.42.

**Q.** `CCCCCN1C/C=C\C(c2ccc(OC)cc2)N(Cc2ccc(F)cc2)C(=O)C1` (configuration not stated) [(6Z)-1-amyl-4-(4-fluorobenzyl)-5-(4-methoxyphenyl)-5,8-dihydro-2H-1,4-diazocin-3-one] was tested. Which pEC50 did it give?
**A.** Its pEC50 is 5.10.

**Q.** With `CC1CCCCN1C(=O)CSc1nnc(-c2c[nH]c3ccccc23)o1` (configuration not stated) as the compound, how does the pEC50 read?
**A.** Its pEC50 is 4.97.

**Q.** How did the pEC50 turn out when `O=c1[nH]c2ccc(S(=O)(=O)N3CCN(c4ccccc4F)CC3)cc2s1` [6-{[4-(2-fluorophenyl)piperazin-1-yl]sulfonyl}-1,3-benzothiazol-2(3H)-one] was run?
**A.** The pEC50 was 5.09.

**Q.** With `CC(=NNC(=O)c1ccc(Br)cc1)c1ccccc1` [MLS000558629] as the compound, how does the pEC50 read?
**A.** Its pEC50 is 5.57.

Same assay, conditions: inactive by the depositor's call

**Q.** With `O=C(Cn1c(-c2ccccc2)noc1=O)N1CCC(Cc2ccccc2)CC1` [4-[2-(4-benzylpiperidin-1-yl)-2-oxoethyl]-3-phenyl-1,2,4-oxadiazol-5-one] as the compound, how does the pEC50 read?
**A.** Its pEC50 is 4.40.

**Q.** With `CC(=O)Nc1ccc(S(=O)(=O)N2CCN(C(C)CCc3ccccc3)CC2)cc1` (configuration not stated) [MLS000110551] as the compound, how does the pEC50 read?
**A.** The pEC50 was 4.17.

**Q.** With `COc1ccc(C(c2nnnn2Cc2cccs2)N2CCN(c3ccccc3F)CC2)cc1` (configuration not stated) [1-(2-Fluoro-phenyl)-4-[(4-methoxy-phenyl)-(1-thiophen-2-ylmethyl-1H-tetrazol-5-yl)-methyl]-piperazine] as the compound, how does the pEC50 read?
**A.** The pEC50 was 4.88.

**Q.** How did the pEC50 turn out when `O=C(Nc1ccc(Cc2ccncc2)cc1)c1ccc(N2CCOCC2)c([N+](=O)[O-])c1` [4-(4-morpholinyl)-3-nitro-N-[4-(4-pyridinylmethyl)phenyl]benzamide] was run?
**A.** Its pEC50 is 4.00.
